PubChem BioAssay AID1549 (Sanford-Burnham Center for Chemical Genomics, 2009)
Active and inactive are the calls of the source. How the calls were made is not given here.

Molecular target: Influenza A virus M2 proton channel (A/TW/4845/1999 H1N1)
Test: NMR binding screen, influenza A virus M2 proton channel, Kd (AID 1549)
Conditions: M2 protein

Row | SMILES | Kd
1 | C[C@H]1O[C@@H](O[C@H]2[C@@H](O)C[C@H](O[C@H]3[C@@H](O)C[C@H](O[C@H]4CC[C@]5(C)C6C[C@@H](O)[C@]7(C)[C@@H](C8=CC(=O)OC8)CC[C@]7(O)C6CC[C@@H]5C4)O[C@@H]3C)O[C@@H]2C)C[C@H](O)[C@@H]1O (stereo partly drawn) | > 4 mM (inactive)
2 | Nc1cccc(CC(=S)N2CCOCC2)c1 | > 4 mM (inactive)
3 | O=C(NCC1CCCCC1)c1ccco1 | > 4 mM (inactive)
4 | O=c1[nH]c(=S)c2c(n1-c1ccccc1)CCC2 | > 4 mM (inactive)
5 | Oc1ccc(-n2cncn2)cc1 | > 4 mM (inactive)
6 | CCCNC(=O)CSc1ncccc1C(=O)O | > 4 mM (inactive)
7 | COC(=O)c1cncc(C(=O)OC)c1 | > 4 mM (inactive)
8 | Cn1c(=O)c2c(ncn2C)n(C)c1=O | > 4 mM (inactive)
9 | NC(=O)CCn1ncc2ccccc21 | > 4 mM (inactive)
10 | NC(=O)c1cccc2c(=O)oc3ccccc3c12 | > 4 mM (inactive)
11 | CCOC(=O)Cc1cc(=O)n2[nH]c(C)cc2n1 | > 4 mM (inactive)
12 | CC(NC(=O)c1cccnc1)c1ccc2c(c1)OCO2 (stereo not drawn) | > 4 mM (inactive)
13 | COc1ccc(-c2c(C)n([O-])c(C)c(C)[n+]2=O)cc1 | > 4 mM (inactive)
14 | COc1nc(C#N)c(N2CCOCC2)o1 | > 4 mM (inactive)
15 | COc1ccc(-c2cc(=O)c3cc(OC)ccc3o2)cc1 | > 4 mM (inactive)
16 | Cn1cnnc1SCC(=O)Nc1ccccc1 | > 4 mM (inactive)
17 | Cc1nc2ccc(C(=O)N3CCSCC3)cc2s1 | > 4 mM (inactive)
18 | Cc1cc(C)n2c(SCc3cccs3)nnc2n1 | > 4 mM (inactive)
19 | O=c1[nH]c(=S)[nH]c2c1CCC2 | > 4 mM (inactive)
20 | CCOc1nc(C)ccc1-c1noc(-c2ccco2)n1 | > 4 mM (inactive)
21 | O=C(O)c1onc2ccccc12 | > 4 mM (inactive)
22 | O=C1CC(=O)N(c2cccc(Cl)c2)N1 | > 4 mM (inactive)
23 | CC1(C)CC2C1CCC1(C)OC1CCC2(C)O (stereo not drawn) | > 4 mM (inactive)
24 | O=C1CC(C(=O)O)c2ccccc21 (stereo not drawn) | > 4 mM (inactive)

Row | SMILES | Kd
25 | CCc1ccc2oc(-c3cc(N)cc(C)c3O)nc2c1 | > 4 mM (inactive)
26 | NC(=O)CSc1nnc2ccc3ccccc3n12 | > 4 mM (inactive)
27 | CC(C)(C)P(=O)(O)c1ccccc1 | > 4 mM (inactive)
28 | CC(=O)C1=C(O)C(=O)NC1c1ccccc1 (stereo not drawn) | > 4 mM (inactive)
29 | CCOC(=O)C1C(C=C(C)C)C1(C)C (stereo not drawn) | > 4 mM (inactive)
30 | O=C(O)CCCC(=O)Nc1nccs1 | > 4 mM (inactive)
31 | CCOC(=O)N1CCN(c2ncnc3c2cnn3C)CC1 | > 4 mM (inactive)
32 | O=C(NCc1cccs1)c1ccncc1 | > 4 mM (inactive)
33 | CSc1nc2cc(F)c(F)cc2n1C | > 4 mM (inactive)
34 | Cc1nn(C)c2sc(CO)cc12 | > 4 mM (inactive)
35 | O=C(O)C1=CCCNC1 | > 4 mM (inactive)
36 | CC(=O)OC1CC[C@@]2(C)C(CCC3C2CC[C@]2(C)C(C4=CC(=O)OC4)C(OC(C)=O)CC32O)C1 (stereo partly drawn) | > 4 mM (inactive)
37 | COc1cc(-c2coc3cc(OC)c(OC)c(OC)c3c2=O)cc(OC)c1OC | > 4 mM (inactive)
38 | O=C(NCCCSc1ncccn1)Nc1ncccn1 | > 4 mM (inactive)
39 | Oc1cccc2[nH]ccc12 | > 4 mM (inactive)
40 | NS(=O)(=O)c1ccccc1Cl | > 4 mM (inactive)
41 | COc1ccc(C(=O)O)cc1OC | > 4 mM (inactive)
42 | CCOC(=O)c1ccc(F)c(F)c1 | > 4 mM (inactive)
43 | Nc1ncnc2c1ncn2C1C[C@H](O)[C@@H](CO)O1 (stereo partly drawn) | > 4 mM (inactive)
44 | c1ccc2[nH]c(CCn3cncn3)nc2c1 | > 4 mM (inactive)
45 | Cc1noc(C)c1CSc1nc2ccccc2[nH]1 | > 4 mM (inactive)
46 | N#Cc1cnc(N2CCCCC2)nc1N | > 4 mM (inactive)
47 | O=C(C1CCC(C(=O)N2CCCC2)CC1)N1CCCC1 (stereo not drawn) | > 4 mM (inactive)
48 | CN(C)C(=S)Nc1ccccc1N1CCOCC1 | > 4 mM (inactive)

Row | SMILES | Kd
49 | NCCNC(=S)Nc1ccccc1 | > 4 mM (inactive)
50 | c1ccc(-c2nsc(N3CCCNCC3)n2)cc1 | > 4 mM (inactive)
51 | Clc1ccc(-c2noc(CN3CCCC3)n2)cc1 | > 4 mM (inactive)
52 | Nc1[nH]c(=S)ncc1S(=O)(=O)c1ccccc1 | > 4 mM (inactive)
53 | O=C(c1ccco1)N1C(=O)c2cccc3cccc1c23 | > 4 mM (inactive)
54 | CC(O)c1nc2ccccc2[nH]1 (stereo not drawn) | > 4 mM (inactive)
55 | C/C1=C/CC(C)(C)/C=C/C/C(C)=C/CC1 | > 4 mM (inactive)
56 | CC(=O)c1ccc(NC(=S)N2CCC(O)CC2)cc1 | > 4 mM (inactive)
57 | NC(CSCSCC(N)C(=O)O)C(=O)O (stereo not drawn) | > 4 mM (inactive)
58 | CC(C)CCCC(C)[C@H]1CCC2C3CC[C@@H]4C[C@H](O)CC[C@]4(C)C3CC[C@@]21C (stereo partly drawn) | > 4 mM (inactive)
59 | Nc1ccc(Cl)nn1 | > 4 mM (inactive)
60 | COC1CC(O[C@H]2CC[C@]3(C=O)C4CC[C@]5(C)C(C6=CC(=O)OC6)CC[C@]5(O)C4CC[C@]3(O)C2)OC(C)C1O (stereo partly drawn) | > 4 mM (inactive)
61 | O=C(O)CCC(=O)c1c[nH]c2ccccc12 | > 4 mM (inactive)
62 | O=Cc1c(N2CCOCC2)nc2ccccn2c1=O | > 4 mM (inactive)
63 | O=C(Nc1cccnc1)N1CCOCC1 | > 4 mM (inactive)
64 | CC(C)[C@@H]1CC[C@@H](C)C[C@H]1OC(=O)c1ccccc1 | > 4 mM (inactive)
65 | Cc1ccc(-c2nn(C)c(=O)c3ccccc23)cc1CO | > 4 mM (inactive)
66 | CC(=O)NC(=S)Nc1cccc(C(=O)O)c1C | > 4 mM (inactive)
67 | COc1ccc2c(c1)=C(c1sc(N)nc1O)C(=O)N=2 | > 4 mM (inactive)
68 | CCn1c(-c2ccccc2)n[nH]c1=S | > 4 mM (inactive)
69 | CNS(=O)(=O)c1cccs1 | > 4 mM (inactive)
70 | Cn1nnc2cc(C(=O)NC3CCCCC3)ccc21 | > 4 mM (inactive)
71 | NCc1ccc(-c2csnn2)cc1 | > 4 mM (inactive)
72 | CC1=C(CCC(=O)O)c2cc3nc(cc4[nH]c(cc5[nH]c(cc1n2)c(C)c5C(C)O)c(C)c4C(C)O)C(C)=C3CCC(=O)O (stereo not drawn) | > 4 mM (inactive)

Row | SMILES | Kd
73 | O=C(Nc1nnc(-c2ccncc2)o1)c1cccs1 | > 4 mM (inactive)
74 | COc1cc(S(=O)(=O)N(C)C)ccc1F | > 4 mM (inactive)
75 | Cc1cc(NC(=O)Cc2cccs2)no1 | > 4 mM (inactive)
76 | Cn1ncc(NC(=O)Nc2ccc(F)cc2F)c1C(N)=O | > 4 mM (inactive)
77 | CC(=O)Oc1ccc2c(c1)c(C(C)=O)c(C)n2C | > 4 mM (inactive)
78 | NC(=O)c1ccc(N=Cc2ccc[nH]2)cc1 | > 4 mM (inactive)
79 | CN(C)C(=O)CSc1cccc2cccnc12 | > 4 mM (inactive)
80 | S=c1[nH]cnc2sccc12 | > 4 mM (inactive)
81 | CC(C)CC(=O)Nc1c[nH]c(=O)[nH]c1=O | > 4 mM (inactive)
82 | Nc1n[nH]c(=S)n1-c1ccccc1 | > 4 mM (inactive)
83 | CC(=O)c1c(O)n(C)c(=S)n(C)c1=O | > 4 mM (inactive)
84 | O=C(O)/C=C1\NC(=O)c2ccccc21 | > 4 mM (inactive)
85 | O=[n+]1cc(-c2ccccc2)n([O-])c2c1CCC2 | > 4 mM (inactive)
86 | Nc1nsc(-c2ccccc2)n1 | > 4 mM (inactive)
87 | Nc1cc(=O)[nH]c(SCC(=O)NC2CCCCC2)n1 | > 4 mM (inactive)
88 | CCC(=O)Oc1ccc(N2C(=O)CCC2=O)cc1 | > 4 mM (inactive)
89 | Cc1ccnc(NS(=O)(=O)c2cccs2)c1 | > 4 mM (inactive)
90 | O=C(O)c1cc(O)c(O)c(O)c1 | > 4 mM (inactive)
91 | CC(CCC(=O)O)[C@H]1CCC2C3C[C@H](O)[C@@H]4C[C@H](O)CC[C@]4(C)C3CC[C@@]21C (stereo partly drawn) | > 4 mM (inactive)
92 | COc1ccc(C)cc1S(N)(=O)=O | > 4 mM (inactive)
93 | CC(=O)Nc1cccc(NC(=O)c2cccnc2)c1 | > 4 mM (inactive)
94 | CN=C(C)c1c(O)n(C)c(=O)n(C)c1=O | > 4 mM (inactive)
95 | CC(C)c1ccc2c(c1)CCC1[C@](C)(CN)CCC[C@]21C (stereo partly drawn) | > 4 mM (inactive)
96 | O=c1cccc2n1CC1CC2CN2CCCC[C@@H]12 (stereo partly drawn) | > 4 mM (inactive)

Row | SMILES | Kd
97 | CNC(=S)Nc1ccc2c(c1)OCO2 | > 4 mM (inactive)
98 | CCOC(=O)C(C)c1n[nH]c(=O)c2ccccc12 (stereo not drawn) | > 4 mM (inactive)
99 | CC(C)=CCC1=C(O)c2ccccc2C(=O)C1=O | > 4 mM (inactive)
100 | Cc1cccc(C)c1NC(=O)CN1CCOCC1 | > 4 mM (inactive)
101 | CC(=O)O[C@@H]1CC2C(C)(C)CCC(=O)[C@]2(C)C2CC[C@@]3(C)[C@H](c4ccoc4)OC(=O)C4OC43[C@@]21C (stereo partly drawn) | > 4 mM (inactive)
102 | CC(=O)c1cccc(N=C2NC(=O)CS2)c1 | > 4 mM (inactive)
103 | CC(=O)c1cc(C)ccc1O | > 4 mM (inactive)
104 | S=C(NC1=NCCS1)Nc1ccccc1 | > 4 mM (inactive)
105 | COc1cc(O)ccc1C(C)=O | > 4 mM (inactive)
106 | Nc1cccc(S(=O)(=O)N2CCCC2)c1 | > 4 mM (inactive)
107 | C[C@H]1C[C@@H](O)[C@]2(O)[C@@]13CC(=O)OC[C@@]2(C)[C@](C)(O)C(=O)C3 | > 4 mM (inactive)
108 | COC1C(O)C(O[C@H]2CC[C@]3(C=O)C4C(CC[C@]3(O)C2)[C@@]2(O)CC[C@H](C3=CC(=O)OC3)[C@@]2(C)C[C@H]4OC(C)=O)OC(C)C1OC(C)=O (stereo partly drawn) | > 4 mM (inactive)
109 | C[n+]1ccc(C(=O)[O-])cc1 | > 4 mM (inactive)
110 | OCc1ncoc1-c1ccccc1 | > 4 mM (inactive)
111 | CN(C)c1ccc(C2CC(=O)CC(=O)C2)cc1 | > 4 mM (inactive)
112 | CC(C)(C)c1cc(CN)c(C(=O)O)o1 | > 4 mM (inactive)
113 | O=C1c2ccccc2-c2ncnc3cccc1c23 | > 4 mM (inactive)
114 | Cc1cc2ncc(C(=O)Nc3ccccc3)c(C)n2n1 | > 4 mM (inactive)
115 | O=C(Nc1ccccc1)Nc1ccccc1 | > 4 mM (inactive)
116 | CC(=O)O[C@@H]1c2c(ccc3ccc(=O)oc23)OC(C)(C)[C@@H]1OC(=O)CC(C)C | > 4 mM (inactive)
117 | OCc1csc(-c2ccccc2)n1 | > 4 mM (inactive)
118 | O=C(O)CC12CC3CC(CC(O)(C3)C1)C2 | > 4 mM (inactive)
